Test [1] deals with Mus musculus. In words: Inhibition of anti-CD3 antibody-induced IL4 production in Balb/c mouse dosed intravenously 5 mins before anti-CD3 antibody injection and measured 2 hrs post-challenge by ELISA. The format is functional, organism-based. (In general: An ELISA detects its analyte on a solid surface through an enzyme-linked reagent.)
The test system of test [2] is Mus musculus. In words: Inhibition of anti-CD3 antibody-induced IFNgamma production in Balb/c mouse dosed intravenously 5 mins before anti-CD3 antibody injection and measured 2 hrs post-challenge by ELISA. The test is classed as functional, organism-based.
Test [3] relates to Mus musculus. The test is described as follows: Inhibition of anti-CD3 antibody-induced IL2 production in Balb/c mouse dosed intravenously 5 mins before anti-CD3 antibody injection and measured 2 hrs post-challenge by ELISA. The test is classed as functional, organism-based.
Test [4] has as its target T1, Dual specificity mitogen-activated protein kinase kinase 7 (Homo sapiens, UniProt O14733).
T1 sequence (O14733 whole entry): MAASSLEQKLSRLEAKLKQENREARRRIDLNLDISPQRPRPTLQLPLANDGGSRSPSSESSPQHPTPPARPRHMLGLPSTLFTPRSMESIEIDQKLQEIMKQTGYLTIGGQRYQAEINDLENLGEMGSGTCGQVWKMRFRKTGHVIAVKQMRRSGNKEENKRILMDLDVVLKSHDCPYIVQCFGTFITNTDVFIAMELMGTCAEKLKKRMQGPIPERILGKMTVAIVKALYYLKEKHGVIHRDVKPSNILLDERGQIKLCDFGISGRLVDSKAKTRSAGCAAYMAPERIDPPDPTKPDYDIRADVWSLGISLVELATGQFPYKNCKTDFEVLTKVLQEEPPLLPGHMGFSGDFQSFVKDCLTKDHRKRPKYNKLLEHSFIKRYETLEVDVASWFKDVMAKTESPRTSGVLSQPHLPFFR
The test is described as follows: Inhibition of GST-tagged human MKK7 expressed in Escherichia coli (BL21(DE3) pLysS) co-expressing human MEKK catalytic domain using biotinylated and GST-tagged rat GST-KN-SAPKalpha substrate incubated for 1 hr by time-resolved fluorescence based assay.

39 compounds from ChEMBL document CHEMBL3714742, “Pyrimido (4,5-b) indole derivatives” (2003) can be followed below.

In general, IC50 refers to the concentration at which inhibition is half-maximal. Low values mean greater potency, high ones weaker potency.

Molecules are shown by their SMILES. Calls of active or inactive are those of the source. How the calls were made is not given here.

Consider `Cc1nc(N2CCCC(CO)C2)c2c(n1)[nH]c1ccc(O)cc12` (stereo unspecified), for which the inhibition result in test [1], in test [2] and in test [3] was “Active” throughout. This compound also displayed an IC50 in test [4] of less than 1 µM.

Take `CC(C)(C)OC(=O)NCCCNc1ncnc2[nH]c3ccc(C(N)=O)cc3c12`: the inhibition result in test [1], in test [2] and in test [3] was “Active” throughout. This compound also gave an IC50 in test [4] of less than 1 µM.

In the case of `NCCNc1ncnc2[nH]c3ccc(C(N)=O)cc3c12`, the inhibition result in test [1], in test [2] and in test [3] was “Active” in each case. In addition, the IC50 in test [4] was less than 1 µM.

For the compound `Nc1nc(N2CCC3CCCCC3C2)c2c(n1)[nH]c1ccc(O)cc12` (stereo unspecified), the inhibition entry in test [1], in test [2] and in test [3] was “Active” throughout. The same compound came in with an IC50 in test [4] of less than 1 µM.

For `COC(=O)c1ccc2[nH]c3nc(C)nc(N4CCCCC4)c3c2c1`, the inhibition entry in test [1], in test [2] and in test [3] was “Active” throughout. The same compound returned an IC50 in test [4] of less than 1 µM.

For the compound `N[C@H]1CCN(c2ncnc3[nH]c4ccc(O)cc4c23)C1`, the inhibition result in test [1], in test [2] and in test [3] was “Active” each time. In test [4], the half-maximal inhibitory concentration (IC50) is less than 1 µM.

Turning to `OC[C@H](Cc1ccccc1)Nc1ncnc2[nH]c3ccc(O)cc3c12`, the inhibition entry in test [1], in test [2] and in test [3] was “Active” in each case. In addition, the IC50 in test [4] is less than 1 µM.

For the compound `NC(=O)c1ccc2[nH]c3ncnc(N4CCC(CCO)CC4)c3c2c1`, the inhibition entry in test [1], in test [2] and in test [3] was “Active” throughout. The compound also showed an IC50 in test [4] of less than 1 µM.

`O=C(O)CCCCCN1CCN(c2ncnc3[nH]c4ccc(O)cc4c23)CC1`: the inhibition entry in test [1], in test [2] and in test [3] was “Active” in each case. For the same compound, half-maximal inhibition in test [4] (IC50) was put at 1 µM.

For `Nc1nc(NCCN2CCCC2)c2c(n1)[nH]c1ccc(O)cc12`, the inhibition entry in test [1], in test [2] and in test [3] was “Active” in each case. Moreover, the concentration for half-maximal inhibition (IC50) in test [4] was more than 10 µM.

As for `COC1CCN(c2nc(N)nc3[nH]c4ccc(O)cc4c23)CC1`, the inhibition result in test [1], in test [2] and in test [3] was “Active” in each case. The compound also had an IC50 in test [4] of less than 1 µM.

In the case of `Nc1nc(N2CCCC2)c2c(n1)[nH]c1ccc(O)cc12`, the inhibition result in test [1], in test [2] and in test [3] was “Active” throughout. The compound also returned an IC50 in test [4] of less than 1 µM.

`Oc1ccc2[nH]c3ncnc(N[C@H]4CC[C@H](O)CC4)c3c2c1`: the inhibition result in test [1], in test [2] and in test [3] was “Active” throughout. Moreover, the IC50 in test [4] is less than 1 µM.

As for `CC1CCCN(c2nc(N)nc3[nH]c4ccc(O)cc4c23)C1` (stereo unspecified), the inhibition result in test [1], in test [2] and in test [3] was “Active” throughout. Also, the concentration for half-maximal inhibition (IC50) in test [4] is less than 1 µM.

Regarding `NC(=O)c1ccc2[nH]c3ncnc(NCCO)c3c2c1`, the inhibition result in test [1], in test [2] and in test [3] was “Active” each time. The compound also showed an IC50 in test [4] of less than 1 µM.

Turning to `CC(C)N(C)c1ncnc2[nH]c3ccc(O)cc3c12`, the inhibition result in test [1], in test [2] and in test [3] was “Active” each time. In test [4], this compound came in with an IC50 of less than 1 µM.

For the compound `OCCCNc1ncnc2[nH]c3ccc(O)cc3c12`, the inhibition result in test [1], in test [2] and in test [3] was “Active” each time. In test [4], this compound yielded an IC50 of less than 1 µM.

Turning to `OCC1CCCCN1c1ncnc2[nH]c3ccc(O)cc3c12` (stereo unspecified), the inhibition entry in test [1], in test [2] and in test [3] was “Active” in each case. Also, the IC50 in test [4] is less than 1 µM.

With `OCC1(Nc2ncnc3[nH]c4ccc(O)cc4c23)CCCC1`, the inhibition result in test [1], in test [2] and in test [3] was “Active” in each case. For the same compound, the IC50 in test [4] was less than 1 µM.

In the case of `Nc1nc(N2CCC(N3CCCC3)CC2)c2c(n1)[nH]c1ccc(O)cc12`, the inhibition entry in test [1], in test [2] and in test [3] was “Active” each time. This compound also had an IC50 in test [4] of less than 1 µM.

`Cc1nc(N2CCCCC2)c2c(n1)[nH]c1ccc(O)cc12`: the inhibition result in test [1], in test [2] and in test [3] was “Active” throughout. In test [4], this compound registered an IC50 of less than 1 µM.

As for `Nc1nc(N2CCC(Cc3ccccc3)CC2)c2c(n1)[nH]c1ccc(O)cc12`, the inhibition entry in test [1], in test [2] and in test [3] was “Active” in each case. Besides, in test [4], the IC50 is 1 µM.

For the compound `COc1cc2[nH]c3nc(N)nc(N4CCOCC4)c3c2cc1OC`, the inhibition entry in test [1], in test [2] and in test [3] was “Active” throughout. In addition, the half-maximal inhibitory concentration (IC50) in test [4] was determined as 1 µM.

On to `NCCCNc1ncnc2[nH]c3ccc(C(N)=O)cc3c12`, for which the inhibition result in test [1], in test [2] and in test [3] was “Active” throughout. In addition, the IC50 in test [4] is less than 1 µM.

Take `NC(=O)c1ccc2[nH]c3ncnc(N4CCC(C(=O)O)CC4)c3c2c1`: the inhibition result in test [1], in test [2] and in test [3] was “Active” throughout. The IC50 in test [4] was less than 1 µM.

For the compound `NC(=O)c1ccc2[nH]c3ncnc(N4CCCC(N)C4)c3c2c1` (stereo unspecified), the inhibition result in test [1], in test [2] and in test [3] was “Active” in each case. This compound also displayed a half-maximal inhibitory concentration (IC50) in test [4] of less than 1 µM.

`C[C@@H](CO)Nc1ncnc2[nH]c3ccc(O)cc3c12`: the inhibition result in test [1], in test [2] and in test [3] was “Active” throughout. In test [4], this compound showed an IC50 of less than 1 µM.

As to `CC(CO)Nc1ncnc2[nH]c3ccc(O)cc3c12` (stereo unspecified), the inhibition result in test [1], in test [2] and in test [3] was “Active” throughout. This compound showed an IC50 in test [4] of less than 1 µM.

In the case of `Nc1nc(NCc2ccccc2)c2c(n1)[nH]c1ccc(O)cc12`, the inhibition entry in test [1], in test [2] and in test [3] was “Active” each time. This compound also displayed a half-inhibitory concentration (IC50) in test [4] of less than 1 µM.

With `Oc1ccc2[nH]c3ncnc(NC4CCOCC4)c3c2c1`, the inhibition entry in test [1], in test [2] and in test [3] was “Active” throughout. In test [4], this compound registered an IC50 of less than 1 µM.

As for `Nc1nc(N2CCNCC2)c2c(n1)[nH]c1ccc(O)cc12`, the inhibition entry in test [1], in test [2] and in test [3] was “Active” throughout. Moreover, in test [4], the midpoint of inhibition, the IC50, lay at 1 µM.

Consider `CC1CC(C)CN(c2ncnc3[nH]c4ccc(O)cc4c23)C1` (stereo unspecified), for which the inhibition result in test [1], in test [2] and in test [3] was “Active” throughout. The compound also displayed an IC50 in test [4] of 1 µM.

Regarding `Oc1ccc2[nH]c3ncnc(N4CCCCC4)c3c2c1`, the inhibition result in test [1], in test [2] and in test [3] was “Active” each time. Further, in test [4], the IC50 is less than 1 µM.

Consider `NC(=O)c1ccc2[nH]c3ncnc(N4CCC(O)(Cc5ccccc5)CC4)c3c2c1`, for which the inhibition entry in test [1], in test [2] and in test [3] was “Active” in each case. This compound also registered an IC50 in test [4] of less than 1 µM.

With `Nc1nc(N2CCCCC2)c2c(n1)[nH]c1ccc(Cl)cc12`, the inhibition result in test [1], in test [2] and in test [3] was “Active” in each case. In test [4], this compound showed an IC50 of 1 µM.

With `NC(=O)c1ccc2[nH]c3ncnc(N4CCCCC4CO)c3c2c1` (stereo unspecified), the inhibition entry in test [1], in test [2] and in test [3] was “Active” each time. The same compound came in with an IC50 in test [4] of less than 1 µM.

Turning to `CCN(CCO)c1ncnc2[nH]c3ccc(O)cc3c12`, the inhibition result in test [1], in test [2] and in test [3] was “Active” throughout. The compound further returned an IC50 in test [4] of less than 1 µM.

As to `NC(=O)c1ccc2[nH]c3ncnc(N4CCCC4)c3c2c1`, the inhibition entry in test [1], in test [2] and in test [3] was “Active” in each case. The IC50 in test [4] was less than 1 µM.

With `Nc1nc(N2CCC3(CC2)OCCO3)c2c(n1)[nH]c1ccc(O)cc12`, the inhibition result in test [1], in test [2] and in test [3] was “Active” in each case. The compound also displayed an IC50 in test [4] of less than 1 µM.
